The NIST ThermoML archive (doi:10.1021/je800548t)
Numbers after ± are expanded uncertainties.

Conditions: Liquid, Ebulliometric method (Recirculating still)

Row | SMILES | vapor or sublimation pressure (321 K) | vapor or sublimation pressure (325 K) | vapor or sublimation pressure (330 K) | vapor or sublimation pressure (335 K) | vapor or sublimation pressure (340 K) | vapor or sublimation pressure (345 K) | vapor or sublimation pressure (350 K) | vapor or sublimation pressure (355 K) | vapor or sublimation pressure (359 K) | vapor or sublimation pressure (305 K) | vapor or sublimation pressure (310 K) | vapor or sublimation pressure (315 K) | vapor or sublimation pressure (320 K) | vapor or sublimation pressure (342 K)
1 | CCO [ethanol] | 26.41 ± 0.21 kPa | 32.02 ± 0.26 kPa | 40.44 ± 0.33 kPa | 50.67 ± 0.41 kPa | 63 ± 0.51 kPa | 77.77 ± 0.63 kPa | 95.35 ± 0.77 kPa | 116.13 ± 0.93 kPa | 135.37 ± 1.1 kPa | – | – | – | – | –
2 | ClC(Cl)Cl [trichloromethane] | – | 73.88 ± 0.3 kPa | 87.71 ± 0.36 kPa | 103.5 ± 0.42 kPa | 121.45 ± 0.49 kPa | – | – | – | – | 34.81 ± 0.14 kPa | 42.47 ± 0.17 kPa | 51.43 ± 0.21 kPa | 61.85 ± 0.25 kPa | 129.28 ± 0.52 kPa
